Test results: ChEMBL document CHEMBL5260845, “Flavone-based arylamides as potential anticancers: Design, synthesis and in vitro cell-based/cell-free evaluations” (2020)
Activity calls are given as the source filed them. No cut-off for these calls is given here.

Columns and labels:
EKVX = test: Antiproliferative activity against human EKVX cells assessed as cell growth inhibition at 10 uM by SRB assay; format: functional
HOP-92 = test: Antiproliferative activity against human HOP-92 cells assessed as cell growth inhibition at 10 uM by SRB assay; format: functional, cell-based
NCI-H226 = test: Antiproliferative activity against human NCI-H226 cells assessed as cell growth inhibition at 10 uM by SRB assay; format: functional
NCI-H23 = test: Antiproliferative activity against human NCI-H23 cells assessed as cell growth inhibition at 10 uM by SRB assay; format: functional
NCI-H522 = test: Antiproliferative activity against human NCI-H522 cells assessed as cell growth inhibition at 10 uM by SRB assay; format: functional, cell-based
SF-295 = test: Antiproliferative activity against human SF-295 cells assessed as cell growth inhibition at 10 uM by SRB assay; format: functional, cell-based
UO-31 = test: Antiproliferative activity against human UO-31 cells assessed as inhibition of cell growth at 10 uM by SRB assay relative to control; format: functional
Hs-578T = test: Antiproliferative activity against human Hs-578T cells assessed as inhibition of cell growth at 10 uM by SRB assay; format: functional, cell-based
CCRF-CEM = test: Antiproliferative activity against human CCRF-CEM cells assessed as cell growth inhibition at 10 uM by SRB assay; format: functional, cell-based
HL-60 = test: Antiproliferative activity against human HL-60 cells assessed as cell growth inhibition at 10 uM by SRB assay; format: functional, cell-based
K562 = test: Antiproliferative activity against human K562 cells assessed as cell growth inhibition at 10 uM by SRB assay; format: functional, cell-based
MOLT-4 = test: Antiproliferative activity against human MOLT-4 cells assessed as cell growth inhibition at 10 uM by SRB assay; format: functional, cell-based
RPMI-8226 = test: Antiproliferative activity against human RPMI-8226 cells assessed as cell growth inhibition at 10 uM by SRB assay; format: functional, cell-based
SR = test: Antiproliferative activity against human SR cells assessed as cell growth inhibition at 10 uM by SRB assay; format: functional, cell-based
SK-MEL-2 = test: Antiproliferative activity against human SK-MEL-2 cells assessed as cell growth inhibition at 10 uM by SRB assay relative to control; format: functional; conditions: Homo sapiens, SK-MEL-2, dose 10 µM

COc1cc2oc(-c3ccc(NC(=O)c4ccc(C#N)cc4)cc3)cc(=O)c2c(OC)c1OC
inhibition at 10 µM (EKVX): < 50% | inhibition (HOP-92): Active | inhibition at 10 µM (NCI-H226): < 50% | inhibition at 10 µM (NCI-H23): < 50% | inhibition (NCI-H522): Active | inhibition (SF-295): Active | inhibition (UO-31): Active | inhibition (Hs-578T): Active

COc1cc2oc(-c3ccc(NC(=O)c4cccc(C#N)c4)cc3)cc(=O)c2c(OC)c1OC
inhibition (CCRF-CEM): Active | inhibition (HL-60): Active | inhibition (K562): Active | inhibition (MOLT-4): Active | inhibition (RPMI-8226): Active | inhibition (SR): Active | inhibition at 10 µM (EKVX): < 50% | inhibition (HOP-92): Active | inhibition at 10 µM (NCI-H226): < 50% | inhibition at 10 µM (NCI-H23): < 50% | inhibition (NCI-H522): Active | inhibition (SF-295): Active | inhibition (UO-31): Active | inhibition (Hs-578T): Active

COC(=O)c1ccc(C(=O)Nc2cccc(-c3cc(=O)c4c(OC)c(OC)c(OC)cc4o3)c2)cc1
inhibition (CCRF-CEM): Active | inhibition (HL-60): Active | inhibition (K562): Active | inhibition (MOLT-4): Active | inhibition (RPMI-8226): Active | inhibition (SR): Active | inhibition at 10 µM (EKVX): < 50% | inhibition (HOP-92): Active | inhibition at 10 µM (NCI-H226): < 50% | inhibition at 10 µM (NCI-H23): < 50% | inhibition (NCI-H522): Active | inhibition (SF-295): Active | inhibition at 10 µM (SK-MEL-2): ≤ 46% | inhibition (UO-31): Active | inhibition (Hs-578T): Active

COc1cc2oc(-c3ccc(NC(=O)c4ccc([N+](=O)[O-])cc4)cc3)cc(=O)c2c(OC)c1OC
inhibition at 10 µM (EKVX): < 50% | inhibition (HOP-92): Active | inhibition at 10 µM (NCI-H226): < 50% | inhibition at 10 µM (NCI-H23): < 50% | inhibition (NCI-H522): Active | inhibition (SF-295): Active | inhibition (UO-31): Active | inhibition (Hs-578T): Active

COc1cc2oc(-c3ccc(NC(=O)c4ccc(Br)cc4)cc3)cc(=O)c2c(OC)c1OC
inhibition (CCRF-CEM): inactive | inhibition (HL-60): inactive | inhibition (K562): inactive | inhibition (MOLT-4): inactive | inhibition (RPMI-8226): inactive | inhibition (SR): inactive | inhibition at 10 µM (EKVX): < 50% | inhibition (HOP-92): Active | inhibition at 10 µM (NCI-H226): < 50% | inhibition at 10 µM (NCI-H23): < 50% | inhibition (NCI-H522): Active | inhibition (SF-295): Active | inhibition (UO-31): Active | inhibition (Hs-578T): Active

COc1cc2oc(-c3ccc(NC(=O)c4cccc(Br)c4)cc3)cc(=O)c2c(OC)c1OC
inhibition (CCRF-CEM): Active | inhibition (HL-60): Active | inhibition (K562): Active | inhibition (MOLT-4): Active | inhibition (RPMI-8226): Active | inhibition (SR): Active | inhibition at 10 µM (EKVX): < 50% | inhibition (HOP-92): Active | inhibition at 10 µM (NCI-H226): < 50% | inhibition at 10 µM (NCI-H23): < 50% | inhibition (NCI-H522): Active | inhibition (SF-295): Active | inhibition (UO-31): Active | inhibition (Hs-578T): Active

COc1cc2oc(-c3cccc(NC(=O)c4ccc(C(F)(F)F)cc4)c3)cc(=O)c2c(OC)c1OC
inhibition (CCRF-CEM): Active | inhibition (HL-60): Active | inhibition (K562): Active | inhibition (MOLT-4): Active | inhibition (RPMI-8226): Active | inhibition (SR): Active | inhibition at 10 µM (EKVX): < 50% | inhibition (HOP-92): Active | inhibition at 10 µM (NCI-H226): < 50% | inhibition at 10 µM (NCI-H23): < 50% | inhibition (NCI-H522): Active | inhibition (SF-295): Active | inhibition at 10 µM (SK-MEL-2): ≤ 46% | inhibition (UO-31): Active | inhibition (Hs-578T): Active

COC(=O)c1ccc(C(=O)Nc2ccc(-c3cc(=O)c4c(OC)c(OC)c(OC)cc4o3)cc2)cc1
inhibition at 10 µM (EKVX): < 50% | inhibition (HOP-92): Active | inhibition at 10 µM (NCI-H226): < 50% | inhibition at 10 µM (NCI-H23): < 50% | inhibition (NCI-H522): Active | inhibition (SF-295): Active | inhibition (UO-31): Active | inhibition (Hs-578T): Active
